Assay results from PubChem BioAssay AID1996.
In brackets after ≈: the same amount, converted by molar mass.

settings: buffer; pH 7.4; 200.0 µM

Row | Structure (SMILES) | solubility kinetic
1 | O=C(NCCc1ccc(Cl)cc1)C12CC3CC(CC(O)(C3)C1)C2 | 46.9 µg/mL (≈ 140 µM)
2 | CCOC(=O)N1CCN(C(=O)c2ccc3[nH]c(C)c(C)c3c2)CC1 | > 49.4 µg/mL
3 | Cn1c(SCc2ccccc2C#N)nc2ccccc2c1=O | 1 µg/mL (≈ 3.25 µM)
4 | O=C(NCCCO)C(=O)NCc1ccncc1 | > 35.6 µg/mL
5 | O=C1CCC(=O)N1CC(=O)N1CCCc2ccccc21 | 28.5 µg/mL (≈ 105 µM)
6 | Cc1ccc(S(=O)(=O)Nc2ccccc2N2CCOCC2)cc1 | 0.8 µg/mL (≈ 2.41 µM)
7 | Cc1cccc(-n2c(=S)[nH]c3nc4c(cc3c2=O)COC(C)(C)C4)c1 | 1.7 µg/mL (≈ 4.81 µM)
8 | CCOC(=O)c1sc(NC(=O)Cc2ccc(F)cc2)nc1C | 3.8 µg/mL (≈ 11.8 µM)
9 | COC(=O)c1sc(-c2ccc(Cl)cc2)cc1NC(=O)COCC(=O)O | 28.1 µg/mL (≈ 73.2 µM)
10 | Cc1[nH]c(C)c(C(=O)/C=C/c2ccc([N+](=O)[O-])cc2)c1C | 2.9 µg/mL (≈ 10.2 µM)
11 | COc1ccc(OC)c(NC(=O)N2CCCc3ccccc32)c1 | 1.7 µg/mL (≈ 5.44 µM)
12 | CC(=O)Nc1ccc(C(=O)Nc2ccc3c(c2)OCCO3)cc1 | 22.8 µg/mL (≈ 73 µM)
13 | CC(C)C(=O)N1CCN(c2ccccc2NC(=S)NC(=O)/C=C/c2ccco2)CC1 | 1.6 µg/mL (≈ 3.75 µM)
14 | Cc1ccc(/C=C2/SC(=O)NC2=S)o1 | 31.1 µg/mL (≈ 138 µM)
15 | N#CCc1nc2ccccc2c(=O)[nH]1 | > 27.8 µg/mL
16 | O=C(OCCCOC(=O)c1cc[n+]([O-])cc1)c1cc[n+]([O-])cc1 | > 47.7 µg/mL
17 | CCOC(=O)CC(=O)NC(CC(=O)OC)c1ccc(Br)cc1 (stereo not drawn) | 45.7 µg/mL (≈ 123 µM)
18 | CCC1Cc2c(nc(N)c3c(N)nc(N4CCOCC4)c(C#N)c23)O1 (stereo not drawn) | 8.9 µg/mL (≈ 26.1 µM)
19 | CCC(=O)Nc1ccc(S(=O)(=O)N2CCc3ccccc32)cc1 | 41.2 µg/mL (≈ 125 µM)
20 | CC1(C)Cc2c(c(-c3ccccc3)nc3sc4c(=O)[nH]c(=S)[nH]c4c23)CO1 | 10.5 µg/mL (≈ 26.5 µM)
21 | CCOC(=O)NN1C(=O)c2ccccc2NC1c1ccccn1 (stereo not drawn) | > 46.8 µg/mL
22 | O=C(CN1C(=O)c2ccccc2S1(=O)=O)NCCc1ccc(F)cc1 | > 54.4 µg/mL
23 | Cc1ccc(S(=O)(=O)N2CCOCC2)cc1C(=O)OCC(=O)N1CCCC1=O | > 61.6 µg/mL
24 | COc1ccc(NC(=O)c2cc3cc(OC)ccc3oc2=O)cc1 | < 0.7 µg/mL

Row | Structure (SMILES) | solubility kinetic
25 | CCOc1ccc(N(C)S(=O)(=O)c2ccc(C)c(C(=O)N3CCN(Cc4ccc5c(c4)OCO5)CC3)c2)cc1 | 15.2 µg/mL (≈ 27.6 µM)
26 | Cc1ccccc1OCC(=O)OCC(=O)N1CCc2ccccc21 | 1.8 µg/mL (≈ 5.53 µM)
27 | O=C(NC1CCSc2ccccc21)c1c(F)cccc1Cl (stereo not drawn) | 7.2 µg/mL (≈ 22.4 µM)
28 | CC1CCCN(CC(=O)Nc2ccc(S(=O)(=O)N3CCCC3)cc2)C1 (stereo not drawn) | > 54.8 µg/mL
29 | CCc1ccc(S(=O)(=O)n2c(C)nc3ccccc32)cc1 | 40.3 µg/mL (≈ 134 µM)
30 | O=C(O)Cn1cc(C(=O)C(F)(F)F)c2ccccc21 | > 40.7 µg/mL
31 | COCCCn1c(SCC(=O)N2CCOCC2)nc2ccccc2c1=O | 52.2 µg/mL (≈ 138 µM)
32 | CN(CCC#N)Cc1cc(=O)oc2ccc3ccccc3c12 | 33.5 µg/mL (≈ 115 µM)
33 | CCOC(=O)Nc1ccc2c(COC(=O)C(NS(=O)(=O)c3ccc(Cl)cc3)C(C)O)cc(=O)oc2c1 (stereo not drawn) | 20.5 µg/mL (≈ 38 µM)
34 | CCC(C)c1ccc(NC(=S)NCc2ccccn2)cc1 (stereo not drawn) | 38.5 µg/mL (≈ 129 µM)
35 | Cc1occc1C(=O)N1CCCC(Nc2ccc(F)c(F)c2)C1 (stereo not drawn) | 46.6 µg/mL (≈ 145 µM)
36 | Cc1noc(C)c1C(=O)OC(C)C(=O)N(C)c1ccccc1 (stereo not drawn) | > 45.3 µg/mL
37 | Cc1ccc(Cl)cc1NC(=O)NCc1cccnc1 | 18.5 µg/mL (≈ 67.1 µM)
38 | O=C(CN1CCCC1)Nc1c(Cl)cccc1Cl | 36.9 µg/mL (≈ 135 µM)
39 | Cc1cccc(NC(=O)Cc2c(F)cccc2Cl)n1 | > 41.8 µg/mL
40 | O=c1oc(-c2ccc([N+](=O)[O-])cc2)nc2ccccc12 | 0.3 µg/mL (≈ 1.12 µM)
41 | Cl.c1csc(CNCc2ccncc2)c1 | > 36.1 µg/mL
42 | COc1cc(N)c(Cl)cc1C(=O)OCC(=O)NCC1CCCO1 (stereo not drawn) | > 51.4 µg/mL
43 | O=C1/C(=C/c2ccccn2)SC(=S)N1CCc1ccccc1 | 0.4 µg/mL (≈ 1.23 µM)
44 | NC(=O)c1ccccc1OCC(=O)Nc1cccnc1Cl | > 45.9 µg/mL
45 | COc1ccc(C2OCC3(CO2)SC(=O)NC3=O)cc1OC (stereo not drawn) | 44.8 µg/mL (≈ 138 µM)
46 | COc1cc2c(cc1OC)CN(C(=O)c1ccc(Cl)c(S(=O)(=O)N3CCCC3)c1)CC2 | > 69.7 µg/mL
47 | Cc1ccc(SCCC(=O)N/N=C/c2cccnc2)cc1 | > 44.9 µg/mL
48 | Cc1ccc(N(CN2C(=O)C3C4CCC(C4)C3C2=O)C(=O)c2ccco2)cc1 (stereo not drawn) | 53.9 µg/mL (≈ 142 µM)

Row | Structure (SMILES) | solubility kinetic
49 | COc1cc(C(=O)NC2CCCc3ccccc32)cc(OC)c1OC (stereo not drawn) | 5.9 µg/mL (≈ 17.3 µM)
50 | CS(=O)(=O)c1ccc(C(=O)Nc2ccccc2Cl)cc1 | > 46.5 µg/mL
51 | COc1cc(Cl)c(C)cc1NC(=O)COC(=O)C1CC1C (stereo not drawn) | 29.9 µg/mL (≈ 95.9 µM)
52 | CCOc1cccc(C(=O)Nc2cccc(NC(=O)c3ccco3)c2)c1 | 3.9 µg/mL (≈ 11.1 µM)
53 | COC(=O)c1ccccc1NC(=O)Nc1ccc(Cl)cn1 | > 45.9 µg/mL
54 | Cc1ccc2c(c1)/C(=C/c1ccccc1F)C(=O)N2 | 1.3 µg/mL (≈ 5.13 µM)
55 | COc1cc(NC(=O)C2CC3CCC2C3)c(OC)cc1Cl (stereo not drawn) | 3.5 µg/mL (≈ 11.3 µM)
56 | CCCCn1cc2c(c1-c1cccc(C)c1)c(=O)n(C)c(=O)n2C | 14 µg/mL (≈ 43 µM)
57 | CCCC1(CCC)NC(=O)N(CC(=O)N2CCc3ccccc32)C1=O | > 51.5 µg/mL
58 | O=Cc1cnc(N2CCCCC2)s1 | 27.6 µg/mL (≈ 141 µM)
59 | CC(OC(=O)CC1CCCCC1)C(=O)Nc1cccc(C#N)c1 (stereo not drawn) | 37.1 µg/mL (≈ 118 µM)
60 | O=c1c2[nH]c3ccc(F)cc3c2ncn1Cc1ccncc1 | 3.3 µg/mL (≈ 11.2 µM)
61 | CC(C)Oc1ccc(N2CC(C(=O)NC3=NCCS3)CC2=O)cc1 (stereo not drawn) | > 52.1 µg/mL
62 | O=C(NC(=O)c1cnccc1C(F)(F)F)Nc1ccccc1 | 18.3 µg/mL (≈ 59.2 µM)
63 | Cc1ccc(-c2nc3ncccc3o2)cc1NC(=O)C(C)(C)C | 44.4 µg/mL (≈ 144 µM)
64 | CCOc1ccccc1CN1C2CCC1CC(c1ccc(C)cc1)C2 (stereo not drawn) | 35 µg/mL (≈ 104 µM)
65 | CC(=O)Nc1ccc(SCC(=O)Nc2ccccc2N2CCOCC2)cc1 | 3.9 µg/mL (≈ 10.1 µM)
66 | CCC(=O)Nc1sc2c(c1C#N)CCC2 | 12.3 µg/mL (≈ 55.8 µM)
67 | Cc1ccc(S(=O)(=O)N2CCN(CCc3ccncc3)CC2)cc1 | > 51.8 µg/mL
68 | Cc1ccc(C(=O)CCC(=O)Nc2cc(C)ccn2)cc1 | 6.2 µg/mL (≈ 22 µM)
69 | Cc1cc(C(=O)NC2CCCCC2)c2cc(F)ccc2n1 | 19.6 µg/mL (≈ 68.4 µM)
70 | COc1cc(-c2nc3ccccn3c2N)ccc1O | > 38.3 µg/mL
71 | Cc1ccc2nc(N3CCOCC3)c(C=O)cc2c1 | 25.8 µg/mL (≈ 101 µM)
72 | Cc1cccc(C)c1NC(=O)CCCCCC1NC(=O)NC1C (stereo not drawn) | > 47.6 µg/mL

Row | Structure (SMILES) | solubility kinetic
73 | CCCc1ncc(C(O)c2cccc(OC)c2)n1C (stereo not drawn) | > 39.1 µg/mL
74 | CC(NC(=O)c1ccc(S(=O)(=O)C(F)F)cc1)c1ccccc1 (stereo not drawn) | > 50.9 µg/mL
75 | COc1ccc(CCNC(=O)CN2C(=O)NC3(CCCCC3C)C2=O)cc1 (stereo not drawn) | > 56 µg/mL
76 | CC1(C)Cc2ccccc2C(C(=O)c2ccccc2)=N1 | 31 µg/mL (≈ 118 µM)
77 | CCn1c(NCc2ccc(OC)cc2)nc2ccccc21 | > 42.2 µg/mL
78 | O=C(Nc1scc(-c2ccccc2)c1C(=O)O)c1ccccc1F | > 51.2 µg/mL
79 | O=C(Nc1nccs1)c1ccc2ccccc2n1 | 5.6 µg/mL (≈ 21.9 µM)
80 | Cc1ccc2cc(C#N)c(N3CCN(C(=O)c4cccs4)CC3)nc2c1 | < 0.2 µg/mL
81 | Cc1cc(C)cc(NC(=O)CCOc2ccccc2)c1 | 4.1 µg/mL (≈ 15.2 µM)
82 | O=C(Nc1nccs1)c1cccnc1Cl | > 36 µg/mL
83 | CC(NC(=O)c1cccs1)c1ccc(Br)cc1 (stereo not drawn) | 3.8 µg/mL (≈ 12.2 µM)
84 | O=C(Nc1cccc2c1CCCC2)c1ccc(F)cc1 | 2.2 µg/mL (≈ 8.17 µM)
85 | O=C(COC(=O)C1=COCCO1)NCc1ccc(Cl)cc1 | 44.7 µg/mL (≈ 143 µM)
86 | Cc1nc(C(F)(F)F)ccc1C(=O)Nc1ccccc1N1CCOCC1 | 50.8 µg/mL (≈ 139 µM)
87 | O=C(CN1CCC(NC(=O)C2CC2)CC1)Nc1cccc(F)c1 | > 47.9 µg/mL
88 | Cc1cc(C#N)c(SCC(N)=O)nc1-c1ccc(F)cc1 | 5.6 µg/mL (≈ 18.6 µM)
89 | COc1ccc(C(=O)NCC2OCCc3ccccc32)cc1OC (stereo not drawn) | 11.8 µg/mL (≈ 36 µM)
90 | COC(=O)c1ccc(NC(=O)C2CC(=O)OC2c2ccccc2)cc1 (stereo not drawn) | 36 µg/mL (≈ 106 µM)
91 | Cc1ccc(C)n1-c1nccc(-c2ccco2)n1 | 23.5 µg/mL (≈ 98.2 µM)
92 | CCN(C(=S)Nc1ccc(OC(F)F)cc1)C1CCCCC1 | 5.4 µg/mL (≈ 16.4 µM)
93 | O=C(CSc1ccc(C(F)(F)F)cn1)Nc1ccccc1 | 16.8 µg/mL (≈ 53.8 µM)
94 | CCCOc1ccccc1/C=C(\C#N)C(=O)Nc1cccnc1 | 6.8 µg/mL (≈ 22.1 µM)
95 | CC1CCCN(C(=O)CCCC(=O)N2CCCC(C)C2)C1 (stereo not drawn) | > 44.2 µg/mL
96 | O=C(Nc1c(-c2ccc(F)cc2)nc2ccccn12)c1ccc(F)cc1 | 3.3 µg/mL (≈ 9.45 µM)

Row | Structure (SMILES) | solubility kinetic
97 | O=C(Nc1ccc(Cl)cn1)c1ccc2[nH]c(=O)c(=O)[nH]c2c1 | 11.7 µg/mL (≈ 36.9 µM)
98 | N#Cc1c(-c2ccco2)ccn(Cc2ccc(F)cc2)c1=O | 9 µg/mL (≈ 30.6 µM)
99 | O=C(COC(=O)c1ccc(OC(F)(F)F)cc1)Nc1ncccn1 | 10.1 µg/mL (≈ 29.6 µM)
100 | O=C(Nc1cc(C(F)(F)F)ccc1N1CCOCC1)c1cnccn1 | 1.1 µg/mL (≈ 3.12 µM)
101 | O=C(NC1CCOc2ccccc21)c1ccc(Cl)nc1 (stereo not drawn) | > 43.3 µg/mL
102 | CN1C(=O)C2C3c4ccccc4C(c4ccccc43)[C@@H]2C1=O (stereo partly drawn) | 2 µg/mL (≈ 6.91 µM)
103 | CN1Cc2c(N3CCOCC3)nc3sc(C#N)c(N)c3c2CC1(C)C | 15 µg/mL (≈ 42 µM)
104 | COc1ccc(C(=O)NCc2ccccn2)cc1[N+](=O)[O-] | > 43.1 µg/mL
105 | CC(=O)c1cccc(NC(=S)NCCc2ccc(Cl)cc2)c1 | 4.1 µg/mL (≈ 12.3 µM)
106 | COC(=O)c1ccc(OCC(O)CNC2CCCC2)cc1.Cl (stereo not drawn) | 47.7 µg/mL
107 | COc1ccc(NC(=O)c2ccc(C)cc2)c[n+]1[O-] | > 38.7 µg/mL
108 | C[C@@H](C(=O)Nc1ccc(SC(F)F)cc1)N1C(=O)C2CCCCC2C1=O (stereo partly drawn) | 52.5 µg/mL (≈ 137 µM)
109 | O=S(=O)(Nc1cccc2ccccc12)c1cccs1 | 5.1 µg/mL (≈ 17.6 µM)
110 | CC(=O)O/C(=C\c1cn(C(C)=O)c2ccccc12)C(=O)O | > 43.1 µg/mL
111 | COc1cccc(/C=C/C(=O)Nc2ccccc2N2CCOCC2)c1 | 28.1 µg/mL (≈ 83 µM)
112 | O=C(COc1cccc(F)c1)Nc1nc(-c2cccnc2)cs1 | 7.3 µg/mL (≈ 22.2 µM)
113 | CC(C)CNC(=O)COC(=O)c1c2c(nc3ccccc13)CCC2 | > 49 µg/mL
114 | Oc1ccccc1N1CCN(C(c2ccccc2)c2ccccc2)CC1 | 0.4 µg/mL (≈ 1.16 µM)
115 | COCc1nnc(NC(=O)c2cc3ccccc3o2)s1 | > 43.4 µg/mL
116 | O=C(Cn1c(=O)cnc2ccccc21)NC1CCC(O)CC1 (stereo not drawn) | > 45.2 µg/mL
117 | Cc1ccc(C(=O)NC2CCCCNC2=O)cc1 (stereo not drawn) | 33.3 µg/mL (≈ 135 µM)
118 | O=C(NC1(C(F)(F)F)OCCO1)c1ccc(F)cc1 | 32.9 µg/mL (≈ 118 µM)
